Results reported in ChEMBL document CHEMBL1128881, “The in vitro effects of three lysosomotropic detergents against three human tumor cell lines” (Bioorg Med Chem Lett, 1995).

Assays:
[1] = Dissociation constant was measured in water; assay type: physicochemical
[2] = Tested for inhibition of DNA synthesis at a dose range of 1.9-2.4 ug/ml after 30 min; range of 8-10 uM; assay type: functional

| Compound | pKa ([1]; water, read-out: pKa) | pKa ([1]; buffer) | further results |
| --- | --- | --- | --- |
| CCCCCCCCCCCCn1ccnc1 [listing 1 of 2 here] | 6.3 |  |  |
| CCCCCCCCCCCCNC(=O)[C@@H](N)CO.Cl |  | 5.8 |  |
| CCCCCCCCCCCCNC(=O)[C@@H](N)COC |  |  | IC50 [2]: 10 µM; pKa [1]: 5.9 |
| Cn1ccnc1 [1-METHYLIMIDAZOLE] | 7 |  |  |
| CCCCCCCCCCCCNC(=O)[C@@H](N)CO | 7.5 |  |  |
| CCCCCCCCCCCCn1ccnc1 [listing 2 of 2 here] |  | 7.5 |  |
